Test results from US8338599B2, “Compounds having a potentiating effect on the activity of ethionamide and uses thereof” (priority 2006, dated 2012).
Values after ≈ are worked out from the molar mass of the structure shown. Values joined by “and” are separate entries in the source; they are usually repeats but may differ in a detail not shown here. Equal values may be shown once.

Assays:
M. bovis BCG = type: cell-based, M. bovis BCG 1173P2; settings: from MIC of ETH alone (6 μM) and MIC of ETH with 25 μM compound
EthR protein [1] = target: T1, EthR protein (Mycobacterium tuberculosis, UniProt P9WMC1); test: Inhibition of interaction of EthR with its target DNA sequence (BIAcore); type: binding, M. tuberculosis H37Rv; settings: compound 3 μM, EthR 540 nM, 37° C.
Procedure: a) Measurement of the Activity of the Compounds on the Inhibition of Interaction of EthR with its Target DNA Sequence
The in vitro measurements of inhibition of binding of the EthR protein to its target DNA sequence were performed on a machine of BIAcore®2000 type (AB, Uppsala, Sweden).
The chips used are CM5 chips sold by the company GE Healthcare. Both the channels of a chip were activated with a solution containing 200 mM of EDC(N-ethyl-N′-(3-[…])carbodiimide) and 50 mM of NHS (N-hydroxysuccinimide). Next, streptavidin (500 ng/μl in a solution containing 10 mM of sodium acetate (pH 3.5) was injected over 12 minutes at a flow rate of 10 μl/minute. The 106-base-pair biotinylated DNA fragment corresponding to the ethA-R intergene region was deposited on one of the two channels of the chip at a rate of 200 ng/ml in order to obtain stable binding of streptavidin corresponding to 50 RU (resonance units). This DNA fragment was obtained by PCR using the chromosomal DNA of M. tuberculosis H37Rv as matrix and O-270: 5′-[…]-3′ (SEQ ID: No. 1) and O-271: 5′-biotin-[…]-3′ (SEQ ID: No. 2). The second channel was functionalized with a 113-base-pair biotinylated DNA fragment (fragment +14 to +127 of the bla gene of E. coli PCR-amplified using the following oligonucleotides: O-343: 5′-[…]-3′ (SEQ ID: No. 3) and O-344: 5′-biotin-[…]-3′ (SEQ ID: No. 4).
Measurement of the binding of the EthR protein to the immobilized DNA was performed at 37° C. in a reference buffer containing 10 mM of Tris-HCl (pH=7.5), 200 mM of NaCl, 0.1 mM of EDTA, 1 mM of DTT and 1% of DMSO at a flow rate of 20 μl/minute. The specific interaction (SI) of EthR with the 106-base-pair double-stranded DNA sequence, expressed in resonance units, corresponds to the difference in signal observed between the two channels.
For each inhibition measurement, the compounds of the invention are dissolved in the reference buffer at a concentration of 3 μM. The compounds of the invention are then incubated in the presence of the protein (540 nM) at 37° C. for 5 minutes, and each solution is then injected onto the two channels of the chip for 3 minutes at a flow rate of 20 μl/minute. The inhibition values are calculated at the end of the injection according to the following equation: […]
in which SIEthR corresponds to the value measured without ligand and SIEthR+ligand corresponds to the value measured in the presence of to ligand.

EthR protein [2] = target: T1, EthR protein; test: In vitro measurement of the IC50 (EthR/DNA binding, BIAcore); set-up: species or system M. tuberculosis H37Rv
Procedure: b) In Vitro Measurement of the IC50 of the Compounds of the Invention.
The in vitro measurement of this datum was performed according to the same principle as for the measurement of inhibition of the EthR/DNA binding using the BIAcore technique.
The specific interaction between EthR and the specific 106-bp DNA fragment was measured on a range of six concentrations of the compounds of the invention, this range extending from 0.11 μM to 27 μM. The IC50 values are then extrapolated from the sigmoid curves obtained.

[3] = Measurement of the solubility (PBS pH 7.4 vs methanol, LC/MS); type: physicochemical; settings: pH 7.4, aqueous buffer, kinetic from dmso stock
Procedure: e) Measurement of the Solubility of the Compounds of the Invention
40 μl of a solution containing a compound of the invention at a concentration of 10 mM in DMSO were diluted in 1.960 ml of methanol, and another 40 μl were diluted in 1.960 ml of a PBS solution containing 675 mM of NaCl, 13.5 mM of KCl, 50 mM of Na2HPO4.2H2O and 10 mM of KH2PO4 at a pH of 7.4. The two solutions were stirred for 24 hours at room temperature, and then centrifuged for 5 minutes and filtered through 0.45 μm filters. 20 μl of each solution were then diluted in 118 μl of methanol and analyzed by liquid chromatography coupled to mass spectrometry (LC/MS). The solubility was determined by the ratio of the areas under the curve of the mass signal for the compound of the invention, according to the following equation: […]

M. tuberculosis H37Rv = test: Ethionamide-potentiating effect, fluorimetric detection on Bactec MGIT 960; type: cell-based
[4] = strain 1%, no ETH, ligand 25 μM
[5] = strain 100%, ETH 0.025 μg/mL + ligand 25 μM
[6] = strain 100%, ETH 0.05 μg/mL + ligand 25 μM
[7] = strain 100%, ETH 0.1 μg/mL + ligand 25 μM
[8] = strain 100%, ETH 0.25 μg/mL + ligand 25 μM
[9] = strain 100%, no ETH, ligand 25 μM

T1 sequence (P9WMC1 whole entry, looked up): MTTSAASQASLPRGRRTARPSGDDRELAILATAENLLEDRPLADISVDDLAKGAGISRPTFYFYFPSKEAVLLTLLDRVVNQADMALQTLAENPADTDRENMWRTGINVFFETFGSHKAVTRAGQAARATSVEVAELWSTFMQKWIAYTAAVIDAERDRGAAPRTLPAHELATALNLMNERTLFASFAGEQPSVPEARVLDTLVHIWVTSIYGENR

Compound: C=CCCC(=O)N1CCC(c2nc(-c3cccs3)no2)CC1 [Compound 20, 1-[4-(3-thiophen-2-yl[1,2,4]oxadiazol-5-yl)piperid-1-yl]pent-4-en-1-one]
- Potentiation % (M. bovis BCG): 2500%
- inhibition at 3 µM (EthR protein [1]): 53%
- IC50 (EthR protein [2]): 1 µM
- solubility at 24 h [3]: 0.0635 mg/mL (≈ 200 µM)
- potentiation of the ethionamide activity (factor) (M. tuberculosis H37Rv; compound 25 μM): about 20 fold

Compound: N#CCC(=O)N1CCC(c2nc(-c3cccs3)no2)CC1 [Compound 22, 3-oxo-3-[4-(3-thiophen-2-yl[1,2,4]oxadiazol-5-yl)piperid-1-yl]propionitrile]
- Potentiation % (M. bovis BCG): 2500%
- inhibition at 3 µM (EthR protein [1]): 28%
- IC50 (EthR protein [2]): 3.33 µM
- solubility at 24 h [3]: 0.0604 mg/mL (≈ 200 µM)
- potentiation of the ethionamide activity (factor) (M. tuberculosis H37Rv; compound 25 μM): ~10 fold
- potentiation of the ethionamide activity (factor) (M. tuberculosis H37Rv; compound 25 μM, listed as compound 22): about 10 fold

Compound: O=C(CC1CC1)N1CCC(c2nc(-c3cccs3)no2)CC1 [Compound 33, 2-cyclopropyl-1-[4-(3-thiophen-2-yl[1,2,4]oxadiazol-5-yl)piperid-1-yl]ethanone]
- Potentiation % (M. bovis BCG): 2500%
- inhibition at 3 µM (EthR protein [1]): 71%
- IC50 (EthR protein [2]): 1.12 µM
- solubility at 24 h [3]: 0.0635 mg/mL (≈ 200 µM)
- bacterial growth-inhibiting properties of the compound alone (M. tuberculosis H37Rv; 25 μM, no ETH (lines A5 and D3)): absence of bacterial growth-inhibiting properties
- MIC (M. tuberculosis H37Rv; Mycobacterium tuberculosis, H37RV, compound 25 μM, read-out: MIC for ETH in the presence of compound): 0.05 µg/mL and 0.3 µM
- State (M. tuberculosis H37Rv; [4]): R
- fluorescence reading D + 0 (M. tuberculosis H37Rv; [4]): 0
- fluorescence reading D + 1 (M. tuberculosis H37Rv; [4]): 0
- fluorescence reading D + 5 (first column, c6) (M. tuberculosis H37Rv; [4]): 0
- fluorescence reading D + 5 (second column, c7) (M. tuberculosis H37Rv; [4]): 0
- fluorescence reading D + 6 (M. tuberculosis H37Rv; [4]): 1
- fluorescence reading D + 7 (first column, c9) (M. tuberculosis H37Rv; [4]): 180
- fluorescence reading D + 7 (second column, c10) (M. tuberculosis H37Rv; [4]): 319
- fluorescence reading J + 8 (M. tuberculosis H37Rv; [4]): 400
- State (M. tuberculosis H37Rv; [5]): R
- fluorescence reading D + 0 (M. tuberculosis H37Rv; [5]): 0
- fluorescence reading D + 1 (M. tuberculosis H37Rv; [5]): 0
- fluorescence reading D + 5 (first column, c6) (M. tuberculosis H37Rv; [5]): 200
- fluorescence reading D + 5 (second column, c7) (M. tuberculosis H37Rv; [5]): 353
- fluorescence reading D + 6 (M. tuberculosis H37Rv; [5]): 400
- fluorescence reading D + 7 (first column, c9) (M. tuberculosis H37Rv; [5]): 400
- fluorescence reading D + 7 (second column, c10) (M. tuberculosis H37Rv; [5]): 400
- fluorescence reading J + 8 (M. tuberculosis H37Rv; [5]): 400
- State (M. tuberculosis H37Rv; [6]): S
- fluorescence reading D + 0 (M. tuberculosis H37Rv; [6]): 0
- fluorescence reading D + 1 (M. tuberculosis H37Rv; [6]): 0
- fluorescence reading D + 5 (first column, c6) (M. tuberculosis H37Rv; [6]): 0
- fluorescence reading D + 5 (second column, c7) (M. tuberculosis H37Rv; [6]): 0
- fluorescence reading D + 6 (M. tuberculosis H37Rv; [6]): 0
- fluorescence reading D + 7 (first column, c9) (M. tuberculosis H37Rv; [6]): 0
- fluorescence reading D + 7 (second column, c10) (M. tuberculosis H37Rv; [6]): 0
- fluorescence reading J + 8 (M. tuberculosis H37Rv; [6]): 0
- State (M. tuberculosis H37Rv; [7]): S
- fluorescence reading D + 0 (M. tuberculosis H37Rv; [7]): 0
- fluorescence reading D + 1 (M. tuberculosis H37Rv; [7]): 0
- fluorescence reading D + 5 (first column, c6) (M. tuberculosis H37Rv; [7]): 0
- fluorescence reading D + 5 (second column, c7) (M. tuberculosis H37Rv; [7]): 0
- fluorescence reading D + 6 (M. tuberculosis H37Rv; [7]): 0
- fluorescence reading D + 7 (first column, c9) (M. tuberculosis H37Rv; [7]): 0
- fluorescence reading D + 7 (second column, c10) (M. tuberculosis H37Rv; [7]): 0
- fluorescence reading J + 8 (M. tuberculosis H37Rv; [7]): 0
- State (M. tuberculosis H37Rv; [8]): S
- fluorescence reading D + 0 (M. tuberculosis H37Rv; [8]): 0
- fluorescence reading D + 1 (M. tuberculosis H37Rv; [8]): 0
- fluorescence reading D + 5 (first column, c6) (M. tuberculosis H37Rv; [8]): 0
- fluorescence reading D + 5 (second column, c7) (M. tuberculosis H37Rv; [8]): 0
- fluorescence reading D + 6 (M. tuberculosis H37Rv; [8]): 0
- fluorescence reading D + 7 (first column, c9) (M. tuberculosis H37Rv; [8]): 0
- fluorescence reading D + 7 (second column, c10) (M. tuberculosis H37Rv; [8]): 0
- fluorescence reading J + 8 (M. tuberculosis H37Rv; [8]): 0
- State (M. tuberculosis H37Rv; [9]): R
- fluorescence reading D + 0 (M. tuberculosis H37Rv; [9]): 0
- fluorescence reading D + 1 (M. tuberculosis H37Rv; [9]): 0
- fluorescence reading D + 5 (first column, c6) (M. tuberculosis H37Rv; [9]): 400
- fluorescence reading D + 5 (second column, c7) (M. tuberculosis H37Rv; [9]): 400
- fluorescence reading D + 6 (M. tuberculosis H37Rv; [9]): 400
- fluorescence reading D + 7 (first column, c9) (M. tuberculosis H37Rv; [9]): 400
- fluorescence reading D + 7 (second column, c10) (M. tuberculosis H37Rv; [9]): 400
- fluorescence reading J + 8 (M. tuberculosis H37Rv; [9]): 400

Compound: O=C(Nc1ccccc1)N1CCC(c2nc(-c3cccs3)no2)CC1 [Compound 48, 4-(3-thiophen-2-yl[1,2,4]oxadiazol-5-yl)piperidine-1-carboxylic acid phenylamide]
- inhibition at 3 µM (EthR protein [1]): 56%
- IC50 (EthR protein [2]): 1.14 µM
- solubility at 24 h [3]: 0.00086 mg/mL (≈ 2.43 µM)

Compound: O=C(Nc1cccs1)N1CCC(c2nc(-c3cccs3)no2)CC1 [Compound 50, 4-(3-thiophen-2-yl[1,2,4]oxadiazol-5-yl)piperidine-1-carboxylic acid thiophen-2-ylamide]
- inhibition at 3 µM (EthR protein [1]): 96%
- IC50 (EthR protein [2]): 0.44 µM
- solubility at 24 h [3]: 0.0029 mg/mL (≈ 8.05 µM)

Compound: O=C(c1ccccc1)N1CCC(c2nc(-c3cccs3)no2)CC1 [Compound 54, phenyl[4-(3-thiophen-2-yl[1,2,4]oxadiazol-5-yl)piperid-1-yl]methanone]
- inhibition at 3 µM (EthR protein [1]): 5%
- solubility at 24 h [3]: 0.0387 mg/mL (≈ 114 µM)
